Test results reported in ChEMBL document CHEMBL5705898 (Proc Natl Acad Sci U S A, 2014).

Target: T1, Histone-lysine N-methyltransferase SETD7 (Homo sapiens, UniProt Q8WTS6)
T1 sequence (Q8WTS6 whole entry): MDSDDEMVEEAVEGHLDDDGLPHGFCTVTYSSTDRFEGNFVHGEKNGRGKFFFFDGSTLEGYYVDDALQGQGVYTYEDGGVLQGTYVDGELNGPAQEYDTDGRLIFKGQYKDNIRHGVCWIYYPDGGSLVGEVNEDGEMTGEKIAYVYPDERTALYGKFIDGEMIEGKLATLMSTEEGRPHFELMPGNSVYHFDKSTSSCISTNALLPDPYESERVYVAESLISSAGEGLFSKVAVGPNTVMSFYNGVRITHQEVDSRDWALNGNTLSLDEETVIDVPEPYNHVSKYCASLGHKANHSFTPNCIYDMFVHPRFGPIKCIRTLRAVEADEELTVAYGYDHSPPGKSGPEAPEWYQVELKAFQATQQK
Assay: Inhibition of wildtype full length human SETD7 (1 to 366 residues) expressed in Escherichia coli BL21 (DE3) V2R-pRARE using biotinylated H3 (1-25) peptide as substrate incubated for 1 hrs in presence of 3H-SAM by radioactivity based assay

SMILES: O=C([C@H](Cc1cccc(C(F)(F)F)c1)NS(=O)(=O)c1cc(F)c2c(c1)CCNC2)N1CCCC1
- IC50: 1 µM
